Test [1] concerns A549, MCF-7, HEK293, and HaCaT cell cultures. In words: Acridine orange / propidium iodide staining, epifluorescence microscopy. Format: cell-based. The text has this: The purpose of using acridine orange (AO) and propidium iodide (PI) is to take advantage of their introduction of viable cells (AO) and non-viable cells (AO/PI) by their intercalating ability in DNA of cells, which by excitation with a wavelength of 400 nm emit radiation of lower energy and longer wavelength (green and red light, respectively). This technique allows differentiating the distinct states in which a cell is found; AO is able to cross the cell membrane regardless of its membrane integrity, so the compound stains all cells, emitting green light and, in some cases, orange if it binds to RNA or where there is high lysosomal activity. PI penetrates the cell when its membrane is damaged by intercalating with higher affinity to DNA and emits red color, eclipsing the intensity caused by AO staining. Briefly, the protocol used for this technique was: 0.5×10^6 cells/mL of A549, MCF-7, HEK293, and HaCaT cells were seeded in 24-well plates on round glass coverslips. All cell cultures were treated with complexes 3 and 4 with the IC50 calculated previously. At 12 h, the coverslips were removed from the wells. Later, 5 μL of a 1:1 mixture of the dyes (50 μg/mL of AO and 100 μg/mL of PI) was added to 5 μL of sample and coverslips were flipped and placed on a slide for observation.

Test [2] has the same test system. The test is described as follows: Nuclei staining with Hoechst 33258. Format: cell-based. The text has this: Hoechst dyes are excited by UV light (~360 nm) and emit a broad spectrum of blue light with a maximum at 460 nm. Upon binding to DNA, they increase their fluorescence 30-fold, which ensures a good signal-to-noise ratio. This increase in fluorescence is due to the suppression of rotational relaxation and reduced hydration upon binding to DNA. These dyes are not intercalating; they bind to the minor groove of the DNA in the A-T rich regions. Hoechst dyes are often used to distinguish condensed pyknotic nuclei in apoptotic cells. Briefly, the Hoechst dye stock solution was prepared by dissolving the contents of one vial (100 mg) in 10 mL of deionized water to create a 10 mg/mL (16.23 mM) solution. Then, 5×10^5 cells/mL of A549, MCF-7, HEK293, and HaCaT cells were seeded in 24-well plates on round glass coverslips. Cell cultures were treated with the complexes 3 and 4 using the IC50 calculated previously. At 12 h, the coverslips were removed from the wells. Cells were fixed by adding 200 μL of 4% paraformaldehyde. Later, cells were incubated at 37 °C for 30 min and washed 2 times with PBS. Then, 200 μL Hoechst 33258 (1:1000) was added to the sample and protected from light following incubation at room temperature for 30 min. Subsequently, they were washed 2 times with PBS.

The test system is the same in test [3]. In words: DNA fragmentation assay (agarose gel). Format: cell-based. The text has this: DNA fragmentation is a characteristic process of apoptosis. During apoptosis, cell DNA is broken into fragments of specific sizes (multiples of 180–200 bp) due to the action of nucleases activated by effector caspases (caspase-3, caspase-7, and caspase-6). To visualize DNA fragmentation on agarose gels, cultures of MCF-7, A549, HEK293, and HaCaT cells treated with complexes 3 and 4 were harvested under the same conditions as the acridine orange/propidium iodide assay and their nuclei stained. Cell cultures were treated with complexes 3 and 4 using the IC50 calculated previously. Cultures were harvested and centrifuged at 12,000 rpm; pellets were washed twice with PBS and resuspended in lysis buffer (10 mM Tris-HCl (pH 7.4), 5 mM EDTA, 0.2% Triton X-100) with RNase and incubated for 1 h at 37 °C. […]. Proteinase K was then added and incubated for 2 h at 55 °C. Extraction was performed with phenol:chloroform:isoamyl. To precipitate DNA, 96% ethanol, 10 M ammonium acetate, and glycogen were added. Finally, the samples were resuspended in 1X Buffer TE and stored at −20 °C. DNA was electrophoretically separated on a 2% agarose gel with ethidium bromide and visualized by UV transillumination.

Test [4] shares this test system. In words: Apoptosis detection with annexin V FITC and propidium iodide. The class given is cell-based. The note with it: at IC50, 12 h. The protocol:
Annexin V detects apoptosis by binding to phosphatidylserine, which during this process is exposed in the outer layer of the cell membrane. Its conjugation with fluorochromes such as FITC allows visualization of this binding by epifluorescence microscopy in the green channel. The detection of apoptosis was determined with the annexin V kit conjugated with the fluorophore FITC (Thermo, cat. 88-8005-72) under the following protocol: 0.5 × 10^6 cells/mL of A549, MCF-7, HEK293, and HaCaT cells were seeded in 24-well plates on round glass coverslips treated with L-polylysine. […] Cultures were incubated for 12 h under standard culture conditions. Subsequently, the cells were washed with 500 μL of cold PBS and incubated for 5 min in a 1X solution of annexin-binding buffer. Next, 15 μL of annexin V conjugate and 5 μL of propidium iodide (PI) were added, and the mixture was incubated over 15 min at room temperature. After washing with 1X buffer, the cells were observed using an epifluorescence microscope (Nikon Eclipse E400). The red channel (TRITC) identified necrosis due to PI intercalation, while the green channel (FITC) detected apoptosis through binding of the phosphatidylserine–annexin V complex.

Test [5] deals with HEK293. Set-up: method as in doi:10.1016/j.ica.2020.119542. The note with it: value taken from previous work ref 16; cited from earlier work.
In test [6] the test system is HaCaT. Set-up: method as in doi:10.1016/j.ica.2020.119542. The note with it: value taken from previous work ref 16; cited from earlier work.
The test system of test [7] is A549 (lung cancer). Set-up: method as in doi:10.1016/j.ica.2020.119542. The note with it: value taken from previous work ref 16; cited from earlier work.
For test [8], the system named is MCF-7 (breast cancer). Set-up: method as in doi:10.1016/j.ica.2020.119542. The note with it: value taken from previous work ref 16; cited from earlier work.
Test [9] relates to A549, MCF-7, HaCaT and HEK293 cell lines. The note with it: previously calculated value for the cell lines evaluated; cited from earlier work.
Test [10] concerns HEK293. The note with it: HEK293, 24 h, MTS.
The test system of test [11] is HaCaT. The note with it: 24 h, MTS.
Test [12] concerns A549 (lung cancer). The note with it: for IC50: A549, 24 h, MTS; for Selectivity Index (SI): IC50(HaCaT)/IC50(A549).
In test [13] the test system is MCF-7 (breast cancer). The note with it: for IC50: MCF-7, 24 h, MTS; for Selectivity Index (SI): IC50(HaCaT)/IC50(MCF-7).
Test [14] relates to A549, MCF-7, HaCaT and HEK293 cell lines. The note with it: for IC50: all the cell lines tested; for increase in potency over cisplatin: considering the concentrations used to determine the IC50.
[15] abbreviates: complexes at IC50 of Table 5, 12 h.

Like-named read-outs stand apart in the source and are kept apart here.

Take `N.N.[Cl][Pt][Cl]` [Cisplatin, cis-[PtCl2(NH3)2]]: the “morphology, AO/PI staining” value in [1] (cisplatin 25 µM) is listed as “show red nuclei, indicating a decrease in cell viability”. Besides, the “nuclear morphology, Hoechst 33258” value in [2] (cisplatin 25 µM) is “evident change in nuclear structure”. Moreover, the DNA fragmentation pattern entry in [3] (cisplatin 25 µM) is reported as “DNA fragmentation is observed”. For the same compound, the “annexin V-FITC / PI fluorescence” value in test [4] is “intense signal in the green channel (FITC)”. In addition, the IC50 (in the test with HEK293 [5]; in the test on HaCaT [6]; in the test with A549 (lung cancer) [7]; in the test with MCF-7 (breast cancer) [8]; in [9]) was 25 µM each time.
Turning to `O=[N+]([O-])[O-].O=[N+]([O-])[O-].[Cu+2]` [Cu(NO3)2, Copper(II) nitrate], the IC50 (usually the concentration that gives 50% inhibition) in the test with HEK293 [10] worked out at 47.6 ± 3.22 µM; in the test on HaCaT [11], 55.5 ± 2.03 µM; with A549 (lung cancer) [12], 47.8 ± 3.22 µM; in the test with MCF-7 (breast cancer) [13], 70.2 ± 2.03 µM.
For the compound “Aqua(1,10-phenanthroline-κ^2N,N’)(β^2-methylalaninate-κ^2N,O)copper(II) nitrate [Compound 3]”, the “morphology, AO/PI staining” value in test [1] (complexes at IC50, 12 h) is recorded as “induced morphological features that, in principle, indicate a cell death process”. Moreover, the “nuclear morphology, Hoechst 33258” value in [2] (setting [15]) is “decrease in the size of the nuclei, irreversible chromatin condensation, and nuclear fragmentation”. Besides, in [3] (complexes at IC50 of Table 5), the DNA fragmentation pattern entry is recorded as “specific indication of an apoptotic process”. For the same compound, the “annexin V-FITC / PI fluorescence” value in test [4] is given as “significant induction of apoptosis”. Moreover, the 50% inhibitory concentration (IC50) is 0.19 ± 0.01 µM with HEK293 [10]; 0.21 ± 0.02 µM with HaCaT [11]; 0.24 ± 0.02 µM with A549 (lung cancer) [12]; 0.35 ± 0.02 µM in the test with MCF-7 (breast cancer) [13]; less than 1 µM in test [14]. Moreover, the “Selectivity Index (SI)” value came to 0.875 in the test with A549 (lung cancer) [12] and 0.6 in the test on MCF-7 (breast cancer) [13]. Also, the “increase in potency over cisplatin” value in [14] amounted to 83 times.
On to “ethanol(1,10-phenanthroline-κ^2N,N’)(β^2-phenylalaninate-κ^2N,O)copper(II) nitrate [Compound 4]”, for which the “morphology, AO/PI staining” value in test [1] (complexes at IC50, 12 h) is listed as “induced morphological features that, in principle, indicate a cell death process”. For the same compound, in [2] (setting [15]), the “nuclear morphology, Hoechst 33258” value is “decrease in the size of the nuclei, irreversible chromatin condensation, and nuclear fragmentation”. Also, the DNA fragmentation pattern entry in test [3] (complexes at IC50 of Table 5) is “specific indication of an apoptotic process”. For the same compound, the “annexin V-FITC / PI fluorescence” value in test [4] was “significant induction of apoptosis”. The IC50 with HEK293 [10] is 0.32 ± 0.02 µM; with HaCaT [11] it was 0.35 ± 0.09 µM; in the test on A549 (lung cancer) [12], 0.22 ± 0.05 µM; in the test with MCF-7 (breast cancer) [13], 0.4 ± 0.02 µM; in test [14], less than 1 µM. In addition, the “Selectivity Index (SI)” value in the test on A549 (lung cancer) [12] is on record as 1.59; with MCF-7 (breast cancer) [13], 0.87. For the same compound, the “increase in potency over cisplatin” value in [14] is on record as 83 times.

Values taken from article PMC11820680, “Synthesis of (1,10-Phenanthroline-κ^2N,N′)(β^2-Methyl- and β^2-PhenylAlaninate-κ^2N,O)Copper(II) Nitrate Complexes and Their Antiproliferative Activity on MCF-7 and A549 Cancer Cell Lines” (Molecules, 2025).
